Among the test systems are CCRF-CEM; DU-145; EKVX; HL-60; HOP-62; K562; M14; MCF7; MDA-MB-231; NCI-H226; OVCAR-5; RPMI-8226; RXF 393; SF-539; SK-OV-3; SR; SW-620; TK-10; UACC-62; SK-MEL-2.
Holding throughout (test): NCI anticancer screen, dose series, 48 h

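Grown in 96-well plates, cells were treated for 48 hours with each compound at five concentrations. Insufficient inhibition: endpoint recorded as highest concentration tested. Abbreviation: GI50, concentration required for 50% inhibition of growth.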 Calls of active or inactive are those of the source. Cut-off read from the data, not from the text of the source: active = GI50 up to about 1.1 µM and inactive = higher. A value given as a limit tells only on which side of the number the result lay.

In the case of `CCc1nc(Cl)nc(Cl)c1Cl`, the GI50 in the test with CCRF-CEM was 0.177 µM (active); in the test on DU-145 it was 9.06 µM (inactive); in the test with EKVX it was 11.4 µM (inactive); in the test with HL-60 it was 1.36 µM (inactive); in the test with HOP-62 it was 8.05 µM (inactive); in the test with K562, 0.107 µM (active). Moreover, the GI50 is 1.28 µM (inactive) in the test with M14; 0.403 µM (active) in the test on MCF7; 1.63 µM (inactive) with MDA-MB-231; 6.5 µM (inactive) with NCI-H226; 0.7 µM (active) with OVCAR-5; 0.0116 µM (active) with RPMI-8226. Moreover, the GI50 is 1.74 µM (inactive) in the test on RXF 393; 3.36 µM (inactive) with SF-539; 6.41 µM (inactive) in the test with SK-OV-3; 0.416 µM (active) in the test with SR; 0.467 µM (active) with SW-620; 6.93 µM (inactive) in the test with TK-10. For the same compound, the GI50 in the test with UACC-62 is 6.44 µM (inactive).
For `Cc1ccc(C2=NOC(=O)[C@@H]3CCCC[C@@H]23)cc1`, the GI50 in the test with CCRF-CEM was > 100 µM (inactive); in the test on DU-145 it was 27.2 µM (inactive); in the test on EKVX, > 100 µM (inactive); in the test on HL-60, > 100 µM (inactive); in the test with HOP-62, > 100 µM (inactive); with K562, > 100 µM (inactive). Besides, the GI50 is > 100 µM (inactive) with M14; > 100 µM (inactive) in the test with MCF7; 75.3 µM (inactive) in the test with MDA-MB-231; > 100 µM (inactive) with NCI-H226; > 100 µM (inactive) in the test on OVCAR-5; > 100 µM (inactive) with RPMI-8226. Moreover, the GI50 in the test on RXF 393, in the test with SF-539, in the test on SK-OV-3, with SR, with SW-620 and in the test on TK-10 was > 100 µM (inactive) in each case. The GI50 in the test with UACC-62 is > 100 µM (inactive).
Turning to `CSc1ncc2c(n1)-c1ccccc1OC2`, the GI50 with CCRF-CEM was 59.2 µM (inactive); in the test with DU-145 it was 39.4 µM (inactive); in the test on EKVX it was 34.3 µM (inactive); with HL-60 it was 38.9 µM (inactive); with M14 it was 45.4 µM (inactive); with MCF7, 43.1 µM (inactive). Moreover, the GI50 with MDA-MB-231 is 16.7 µM (inactive); with NCI-H226 it was 67 µM (inactive); in the test with OVCAR-5 it was > 100 µM (inactive); in the test on RPMI-8226 it was > 100 µM (inactive); in the test on RXF 393 it was 41.5 µM (inactive); in the test with SF-539, 37.7 µM (inactive). The GI50 with SK-MEL-2 is > 100 µM (inactive); in the test with SK-OV-3 it was > 100 µM (inactive); in the test on SR, 61 µM (inactive); with SW-620 it was 62.2 µM (inactive); with TK-10, 45.1 µM (inactive); with UACC-62, 78.2 µM (inactive).
For the compound `Cc1ccc(S(=O)(=O)NC(=O)C2=C(c3ccccc3)[N-]N(C)c3nc4cccc[n+]4nc32)cc1`, the GI50 was > 100 µM (inactive) in the test on CCRF-CEM; > 100 µM (inactive) in the test on DU-145; 29.1 µM (inactive) in the test on EKVX; > 100 µM (inactive) in the test with HL-60; > 100 µM (inactive) in the test on K562; > 100 µM (inactive) in the test with M14. The GI50 is 49.9 µM (inactive) in the test on MCF7; 50.9 µM (inactive) with MDA-MB-231; > 100 µM (inactive) in the test on NCI-H226; > 100 µM (inactive) in the test with OVCAR-5; 45.6 µM (inactive) in the test with RPMI-8226; > 100 µM (inactive) in the test with RXF 393. Also, the GI50 is > 100 µM (inactive) with SF-539; > 100 µM (inactive) with SK-MEL-2; > 100 µM (inactive) in the test with SR; 49.2 µM (inactive) in the test with SW-620; > 100 µM (inactive) in the test on TK-10; > 100 µM (inactive) in the test with UACC-62.
Turning to `CCN(CC)CCO/N=C1\CC[C@H]2[C@@H]3CCc4cc(OC)ccc4[C@H]3CC[C@]12C`, the GI50 in the test with CCRF-CEM was 1.22 µM (inactive); with DU-145 it was 4.76 µM (inactive); in the test with EKVX, 3.16 µM (inactive); with HL-60 it was 0.885 µM (active); in the test with HOP-62, 1.77 µM (inactive); with K562 it was 0.685 µM (active). Also, the GI50 in the test with M14 was 0.467 µM (active); with MCF7 it was 3.66 µM (inactive); in the test on MDA-MB-231 it was 3.37 µM (inactive); in the test on NCI-H226, 1.88 µM (inactive); with OVCAR-5 it was 3.17 µM (inactive); in the test with RPMI-8226 it was 1.67 µM (inactive). The GI50 in the test on RXF 393 is 1.6 µM (inactive); in the test on SF-539 it was 1.97 µM (inactive); in the test on SK-MEL-2, 2.3 µM (inactive); with SR it was 1.49 µM (inactive); in the test with SW-620 it was 1.72 µM (inactive); in the test on TK-10 it was 6.44 µM (inactive). The GI50 with UACC-62 is 0.82 µM (active).
As for `NC(=O)Cn1c(=O)oc2cc(C(=O)CN3CCOCC3)ccc21`, the GI50 in the test on CCRF-CEM, with DU-145, in the test with EKVX, in the test with HL-60, in the test on HOP-62 and in the test on K562 was > 100 µM (inactive) throughout. The GI50 with M14, in the test on MCF7, in the test with MDA-MB-231, with NCI-H226, in the test with OVCAR-5 and in the test with RPMI-8226 was > 100 µM (inactive) each time. In addition, the GI50 with RXF 393, in the test with SF-539, in the test on SK-MEL-2, with SK-OV-3, with SR and in the test with SW-620 was > 100 µM (inactive) throughout.
Turning to `C=C1c2nc3ccccc3n2C=C(c2ccc(OC)cc2)N1c1ccc(OC)cc1`, the GI50 with CCRF-CEM is > 100 µM (inactive); in the test on DU-145, 26.9 µM (inactive); in the test with EKVX, 25.5 µM (inactive); with HL-60, > 100 µM (inactive); with K562, > 100 µM (inactive); in the test on M14 it was 39.8 µM (inactive). Moreover, the GI50 was 22 µM (inactive) in the test on MCF7; 20 µM (inactive) in the test on MDA-MB-231; 18.7 µM (inactive) in the test on NCI-H226; 65.5 µM (inactive) in the test on OVCAR-5; 29.4 µM (inactive) in the test on RPMI-8226; 9.98 µM (inactive) in the test on RXF 393. The GI50 is 7.16 µM (inactive) in the test with SF-539; 29.3 µM (inactive) in the test on SK-MEL-2; 16.1 µM (inactive) in the test on SK-OV-3; 12.8 µM (inactive) in the test with SR; 37.8 µM (inactive) in the test on SW-620; 10.8 µM (inactive) in the test on TK-10. Besides, the GI50 in the test with UACC-62 is 16.1 µM (inactive).
Take `Cc1nc(OCc2ccccc2)c2ncn(CCO)c2n1`: the GI50 in the test on CCRF-CEM, in the test with DU-145, in the test on HL-60, in the test with M14, in the test with MCF7 and with MDA-MB-231 was > 100 µM (inactive) throughout. For the same compound, the GI50 in the test on NCI-H226, with OVCAR-5, in the test with RPMI-8226, with RXF 393, with SF-539 and in the test on SK-MEL-2 was > 100 µM (inactive) throughout. Besides, the GI50 with SK-OV-3, in the test on SR, in the test with SW-620, with TK-10 and with UACC-62 was > 100 µM (inactive) each time.
With `O=c1oc2c(ccc3c(O)cccc32)c2c1CCCC2`, the GI50 was > 100 µM (inactive) in the test with CCRF-CEM; > 100 µM (inactive) in the test with DU-145; 33.8 µM (inactive) in the test with EKVX; > 100 µM (inactive) with HL-60; 18.9 µM (inactive) in the test with HOP-62; > 100 µM (inactive) in the test on K562. Further, the GI50 in the test on M14 is > 100 µM (inactive); in the test with MCF7, 42.2 µM (inactive); with MDA-MB-231, 17.4 µM (inactive); with NCI-H226 it was > 100 µM (inactive); with OVCAR-5 it was > 100 µM (inactive); in the test with RPMI-8226 it was > 100 µM (inactive). In addition, the GI50 with RXF 393 was 14.5 µM (inactive); in the test with SF-539, 22.2 µM (inactive); with SK-MEL-2, 3.52 µM (inactive); with SR it was 4.55 µM (inactive); in the test on SW-620 it was > 100 µM (inactive); in the test on TK-10, > 100 µM (inactive). Further, the GI50 with UACC-62 is 4.71 µM (inactive).
For `COc1ccc2cc(C(C)C(=O)N3CCOC3=O)ccc2c1` (stereo not drawn), the GI50 with CCRF-CEM, with DU-145, with EKVX, with HL-60, in the test with HOP-62 and with K562 was > 100 µM (inactive) in each case. Moreover, the GI50 with M14, with MCF7, in the test on MDA-MB-231, with NCI-H226, in the test with OVCAR-5 and with RPMI-8226 was > 100 µM (inactive) each time. Moreover, the GI50 in the test with RXF 393, with SF-539, in the test on SK-OV-3, with SR, in the test with SW-620 and with TK-10 was > 100 µM (inactive) throughout. Besides, in the test on UACC-62, the GI50 is > 100 µM (inactive).
For the compound `O=C1/C(=C/c2ccc(Cl)cc2)Oc2cc(O)ccc21` [6-HYDROXY-4'-CHLORO AURONE], the GI50 in the test with CCRF-CEM was 20.2 µM (inactive); in the test on DU-145, 41.4 µM (inactive); in the test with EKVX it was 29.2 µM (inactive); in the test with HL-60 it was 18.1 µM (inactive); in the test on HOP-62 it was 32.7 µM (inactive); in the test with K562, 19.1 µM (inactive). The GI50 was 50.6 µM (inactive) in the test on M14; 34 µM (inactive) in the test on MCF7; 34.6 µM (inactive) with MDA-MB-231; 28.2 µM (inactive) with NCI-H226; 30.6 µM (inactive) in the test on RPMI-8226; 39.4 µM (inactive) in the test with RXF 393. Moreover, the GI50 in the test on SF-539 is 21.9 µM (inactive); with SK-OV-3, 30.6 µM (inactive); in the test on SR it was 20.2 µM (inactive); in the test on SW-620, 44.6 µM (inactive); in the test with TK-10, 30.5 µM (inactive); in the test with UACC-62, 34.2 µM (inactive).

For the origin of these results see ChEMBL document CHEMBL1201862, “PubChem BioAssay data set” (2004).
